Test results taken from patent publication US7026318B2 (Shionogi & Co., Ltd., priority 2000, dated 2006).
Where two headings read alike, the source gives them in different places.

How the values were obtained:
[1] = biological target: human type I enzyme (sPLA2) (Homo sapiens, UniProt P04054); experiment: Inhibition test of human secretory phospholipase A2, chromogenic assay, type I enzyme; format: biochemical; settings: recombinant human sPLA2 type I, chromogenic assay, 30 min; read-out: IC50 type I
Sequence of human type I enzyme (sPLA2) (P04054 23-148): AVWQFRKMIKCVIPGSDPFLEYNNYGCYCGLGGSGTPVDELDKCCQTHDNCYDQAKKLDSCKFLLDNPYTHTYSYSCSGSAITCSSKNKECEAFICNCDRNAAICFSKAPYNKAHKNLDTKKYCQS

[2] = biological target: T1, human type II enzyme (sPLA2) (Homo sapiens, UniProt P14555); experiment: Inhibition test of human secretory phospholipase A2, chromogenic assay, type II enzyme; format: biochemical; settings: human sPLA2 type II, chromogenic assay, 30 min; read-out: IC50 type II
T1 sequence (P14555 21-144): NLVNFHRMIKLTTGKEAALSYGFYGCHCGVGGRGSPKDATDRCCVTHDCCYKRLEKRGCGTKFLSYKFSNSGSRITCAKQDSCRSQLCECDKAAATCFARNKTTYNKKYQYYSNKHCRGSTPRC

human type X sPLA2 [3] = biological target: T2, human type X sPLA2 (Homo sapiens, UniProt O15496); experiment: Inhibition test of human secretory phospholipase A2, chromogenic assay, type X enzyme; format: biochemical
T2 construct: made in house; unpurified culture supernatant
T2 sequence (O15496 43-165): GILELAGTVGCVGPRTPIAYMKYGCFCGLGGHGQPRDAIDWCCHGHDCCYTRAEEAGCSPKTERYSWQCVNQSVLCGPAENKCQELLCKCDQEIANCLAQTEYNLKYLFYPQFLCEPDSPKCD

human type V sPLA2 = biological target: T3, human type V sPLA2 (Homo sapiens, UniProt P39877); experiment: Inhibition test of human secretory phospholipase A2, chromogenic assay, type V enzyme; format: biochemical; settings: human sPLA2 type V (CHO supernatant), chromogenic assay, 45 min; read-out: IC50 type V
T3 construct: made in house; unpurified culture supernatant
T3 sequence (P39877 21-138): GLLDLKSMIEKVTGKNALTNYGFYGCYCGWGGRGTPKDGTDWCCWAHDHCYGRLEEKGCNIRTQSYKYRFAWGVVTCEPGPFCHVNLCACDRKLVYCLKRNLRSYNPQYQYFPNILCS

human type X sPLA2 [4] = biological target: T2, human type X sPLA2; experiment: Human type X sPLA2-induced oleic acid release in human colon carcinoma HT-29 cells; format: cell-based; settings: compound 10 μM, 100 nM human type X sPLA2, 30 min, percentage of the increase by type X sPLA2 (no treatment group = 100)
Experimental: Examination 15: Effects of sPLA2 Inhibitors on Human Type X sPLA2-Induced Oleic Acid Release in Human Colon Calcinoma Cell Lines, HT-29 Cells.
Human colon calcinoma cell lines, HT-29 cells (obtained from ATCC) were cultured in DMEM supplemented with 10% fetal calf serum. The cells were washed by phosphate-buffered saline (PBS), detached from culture plates by treatment with trypsin/EDTA solution and further washed by PBS. The resulting cells were resuspended in Hanks' buffered saline containing 0.1% bovine serum albumin (BSA) at a density of 12.5×10^6 cells/mL. Aliquots of the cell suspension (0.4 ml) were transferred into polypropylene tubes and test compounds dissolved in DMSO solution (final concentration; 10 μM) were added. After preincubation for 10 min at 37° C., 100 nM purified human type X sPLA2 enzyme (Hanasaki et al J. Biol. Chem. (1999) 274, 34203–34211) was added (final volume of 0.5 mL). After incubation for 30 min at 37° C., the reaction was stopped by the addition of 2 ml Dole's reagent (heptane:2-propanol:1M H2SO4=10:40:1, v/v/v).

human type X sPLA2 [5] = biological target: T2, human type X sPLA2; experiment: Type X sPLA2-induced PGE2 production in human colon carcinoma HT-29 cells; format: cell-based; settings: compound 10 μM; TNF-α-treated HT-29 cells; 100 nM human type X sPLA2, 3 h; percentage of PGE2 produced by type X sPLA2 (no treatment group = 100)
Experimental: Examination 16: Effects of sPLA2 Inhibitors on Type X sPLA2-Induced PGE2 Production in Human Colon Carcinoma Cell Lines, HT-29 Cells.
HT-29 cells were seeded into 24-well plates at a density of 2.5×10^5 cells/well. After incubation for 24 h, the cells were washed three times with PBS and incubated with 30 ng/mL of recombinant human tumor necrosis factor-α (R&D Systems, Inc.) in DMEM medium supplemented with 10% fetal bovine serum for 18 h at 37° C. After washing with PBS, the cells were preincubated with or without test compounds (at a final concentration of 10 μM; dissolved in DMSO) in Hanks' buffered saline containing 0.1% BSA for 10 min at 37° C., and then stimulated with 100 nM purified human type X sPLA2 enzyme in a final volume of 0.5 mL. After incubation for 3 h at 37° C, the culture supernatant was collected following the centrifugation for the removal of floating cells, and its PGE2 content was quantified with an enzyme-immunoassay kit (Cayman Chemicals Co.). From each data, the value in the absence of type X sPLA2 was subtracted. The amount of PGE2 in the presence of each test compound was expressed as the percentage of the PGE2 content produced by the addition of type X sPLA2 enzyme.

[6] = human sPLA2 type X (CHO supernatant), chromogenic assay, 30 min, read-out: IC50 type X

Compound	melting point	IC50 [1]	IC50 [2]	IC50 (human type X sPLA2 [3]; [6])	IC50 (human type V sPLA2)	Oleic acid release (human type X sPLA2 [4])	PGE2 production (human type X sPLA2 [5])	IC50 (human type X sPLA2 [3])
CCS(=O)(=O)NC(=O)COc1cccc2c1c(C(=O)C(N)=O)c(CC(C)C)n2Cc1ccccc1	200 to 201 °C							
CCCS(=O)(=O)NC(=O)COc1cccc2c1c(C(=O)C(N)=O)c(CC(C)C)n2Cc1ccccc1	181 to 183 °C							
CC(C)Cc1c(C(=O)C(N)=O)c2c(OCC(=O)NS(=O)(=O)C(C)C)cccc2n1Cc1ccccc1	218.5 to 220 °C							
CCCCS(=O)(=O)NC(=O)COc1cccc2c1c(C(=O)C(N)=O)c(CC(C)C)n2Cc1ccccc1	219.5 to 221 °C							
CC(C)Cc1c(C(=O)C(N)=O)c2c(OCC(=O)O)cccc2n1Cc1ccc(F)cc1 [Compound I-11]	172 to 173.5 °C	> 700 nM	> 1000 nM		> 1000 nM			12 nM
CC(C)Cc1c(C(=O)C(N)=O)c2c(OCC(=O)O)cccc2n1CC1CCCCC1 [Compound I-12]	195.5 to 197 °C	> 700 nM	> 1000 nM		> 1000 nM			32 nM
Cc1cc(OCC(=O)O)c2c(C(=O)C(N)=O)c(CC(C)C)n(Cc3ccccc3)c2c1 [Compound I-13]	220 to 221.5 °C	> 700 nM	> 1000 nM		> 1000 nM			28 nM

Continued, in another order:

melting point	IC50 [1]	IC50 [2]	IC50 (human type X sPLA2 [3]; [6])	IC50 (human type V sPLA2)	Oleic acid release (human type X sPLA2 [4])	PGE2 production (human type X sPLA2 [5])	Compound	IC50 (human type X sPLA2 [3])
206 to 208 °C	> 700 nM	> 1000 nM	32 nM	> 1000 nM			Cc1cn2c(Cc3ccccc3)c(CC(C)C)c(C(=O)C(N)=O)c2c(OCC(=O)O)n1 [Compound I-1]	
209 to 210 °C	> 700 nM	> 1000 nM	43 nM	> 1000 nM			Cc1cn2c(CC3CCCCC3)c(CC(C)C)c(C(=O)C(N)=O)c2c(OCC(=O)O)n1 [Compound I-2]	
193 to 194.5 °C	> 700 nM	> 1000 nM	48 nM	> 1000 nM			Cc1cn2c(CC3CCCC3)c(CC(C)C)c(C(=O)C(N)=O)c2c(OCC(=O)O)n1 [Compound I-3]	
202 to 203 °C					13.8 ± 1.8 %	35.3 ± 40.2 %	Cc1cn2c(CCc3ccccc3)c(CC(C)C)c(C(=O)C(N)=O)c2c(OCC(=O)O)n1 [Compound I-4]	
205 to 207 °C							CCCCc1c(C(=O)C(N)=O)c2c(OCC(=O)O)nc(C)cn2c1Cc1ccccc1 [Compound I-5]	
258 to 260 °C							Cc1cn2c(Cc3ccccc3)c(Cc3ccccc3)c(C(=O)C(N)=O)c2c(OCC(=O)O)n1 [Compound I-7]	
245 to 247 °C	> 700 nM	> 1000 nM	22 nM	> 1000 nM			Cc1cc(OCC(=O)O)c2c(C(=O)C(N)=O)c(CC(C)C)c(Cc3ccccc3)n2n1 [Compound I-9]	
200.5 to 202 °C							CC(C)Cc1c(C(=O)C(N)=O)c2c(OCC(=O)O)cccc2n1-c1ccccc1 [Compound I-14]	
